Reference: US7462600B2, “Macrolides” (Pfizer Inc, priority 2004, dated 2008)
≈ marks a conversion by molar mass, not a printed value.

What was measured:
Format in all cases: cell-based
[1] = tested on: Streptococcus pneumoniae 1175; conditions: S. pneumoniae 1175 (mefA); microtiter broth dilution
Outline: (§1)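 Broth dilution was run in microtiter trays and read per NCCLS M100-S14 to give MICs. Compounds came from 40 mg/ml DMSO stock solutions. The strain panel paired macrolide-susceptible parents with macrolide-resistant derivatives.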

[2] = tested on: Streptococcus pneumoniae 1095; conditions: S. pneumoniae 1095 (ermB); microtiter broth dilution
Outline: as §1

[3] = tested on: Streptococcus pyogenes 1079; assay: MIC, microtiter broth dilution (NCCLS M100-S14), S. pyogenes 1079 (ermB); conditions: S. pyogenes 1079 (ermB)
Outline: as §1

[4] = tested on: Haemophilus influenzae 1218; assay: MIC, microtiter broth dilution (NCCLS M100-S14), H. influenzae 1218 (susceptible); conditions: H. influenzae 1218 (susceptible)
Outline: as §1

[5] = tested on: Streptococcus pneumoniae 1016; assay: MIC, microtiter broth dilution (NCCLS M100-S14), S. pneumoniae 1016 (susceptible); conditions: S. pneumoniae 1016 (susceptible)
Outline: as §1

Row | Compound | MIC S. pneumo. 1175 [1] | MIC S. pneumo. 1095 [2] | MIC S. pyogenes 1079 [3] | MIC H. influenzae 1218 [4] | MIC S. pneumo. 1016 [5]
1 | CCC1OC(=O)C(C)C(=O)C(C)C(OC2OC(C)CC(N(C)C)C2O)C(C)(OC)CC(C)C(=O)C(C)C2N(CC3CCCN3Cc3cccc4cnccc34)C(=O)OC12C (stereo not drawn) [10.03] | 0.25 µg/mL (≈ 0.299 µM) | 0.25 µg/mL (≈ 0.299 µM) | 64 µg/mL (≈ 76.5 µM) | 8 µg/mL (≈ 9.56 µM) | <0.06 µg/mL
2 | CCC1OC(=O)C(C)C(=O)C(C)C(OC2OC(C)CC(N(C)C)C2O)C(C)(OC)CC(C)C(=O)C(C)C2N(CC3CCCN3Cc3ccnc4ccccc34)C(=O)OC12C (stereo not drawn) [10.04] | <0.06 µg/mL | <0.06 µg/mL | 16 µg/mL (≈ 19.1 µM) | 0.5 µg/mL (≈ 0.597 µM) | <0.06 µg/mL
3 | CCC1OC(=O)C(C)C(=O)C(C)C(OC2OC(C)CC(N(C)C)C2O)C(C)(OC)CC(C)C(=O)C(C)C2N(CC3CCCN3Cc3cccc4cccnc34)C(=O)OC12C (stereo not drawn) [10.05] | 0.12 µg/mL (≈ 0.143 µM) | <0.06 µg/mL | >64.00 µg/mL | 4 µg/mL (≈ 4.78 µM) | <0.06 µg/mL
4 | CCC1OC(=O)C(C)C(=O)C(C)C(OC2OC(C)CC(N(C)C)C2O)C(C)(OC)CC(C)C(=O)C(C)C2N(CC3CCCN3C(=O)c3ccc4ncccc4c3)C(=O)OC12C (stereo not drawn) [10.06] | 0.12 µg/mL (≈ 0.141 µM) | <0.06 µg/mL | 64 µg/mL (≈ 75.2 µM) | 2 µg/mL (≈ 2.35 µM) | <0.06 µg/mL
5 | CCC1OC(=O)C(C)C(=O)C(C)C(OC2OC(C)CC(N(C)C)C2O)C(C)(OC)CC(C)C(=O)C(C)C2N(CC3CCCN3C(=O)c3cnc4ccccc4c3)C(=O)OC12C (stereo not drawn) [10.07] | 0.25 µg/mL (≈ 0.294 µM) | <0.06 µg/mL | >64.00 µg/mL | 2 µg/mL (≈ 2.35 µM) | <0.06 µg/mL
6 | CCC1OC(=O)C(C)C(=O)C(C)C(OC2OC(C)CC(N(C)C)C2O)C(C)(OC)CC(C)C(=O)C(C)C2N(CC3CCCN3C(=O)c3ccc4ccccc4n3)C(=O)OC12C (stereo not drawn) [10.08] | 2 µg/mL (≈ 2.35 µM) | <0.06 µg/mL | >64.00 µg/mL | 2 µg/mL (≈ 2.35 µM) | <0.06 µg/mL
7 | CCC1OC(=O)C(C)C(=O)C(C)C(OC2OC(C)CC(N(C)C)C2O)C(C)(OC)CC(C)C(=O)C(C)C2N(CC3CCCN3C(=O)c3cc4ccccc4cn3)C(=O)OC12C.O=CO (stereo not drawn) [10.09] | 1 µg/mL | <0.06 µg/mL | >64.00 µg/mL | 2 µg/mL | <0.06 µg/mL
8 | CCC1OC(=O)C(C)C(=O)C(C)C(OC2OC(C)CC(N(C)C)C2O)C(C)(OC)CC(C)C(=O)C(C)C2N(CC3CCCN3C(=O)c3ccnc4ccccc34)C(=O)OC12C.O=CO (stereo not drawn) [10.10] | 1 µg/mL | <0.06 µg/mL | >64.00 µg/mL | 4 µg/mL | <0.06 µg/mL
9 | CCC1OC(=O)C(C)C(=O)C(C)C(OC2OC(C)CC(N(C)C)C2O)C(C)(OC)CC(C)C(=O)C(C)C2N(CC3CCCN3C(=O)c3cccc4cccnc34)C(=O)OC12C.O=CO (stereo not drawn) [10.11] | 4 µg/mL | 0.5 µg/mL | >64.00 µg/mL | 16 µg/mL | <0.06 µg/mL
10 | CCC1OC(=O)C(C)C(=O)C(C)C(OC2OC(C)CC(N(C)C)C2O)C(C)(OC)CC(C)C(=O)C(C)C2N(CC3CCCN3C(=O)c3ccc4nccnc4c3)C(=O)OC12C.O=CO (stereo not drawn) [10.12] | 0.12 µg/mL | <0.06 µg/mL | 32 µg/mL | 2 µg/mL | <0.06 µg/mL
11 | CCC1OC(=O)C(C)C(=O)C(C)C(OC2OC(C)CC(N(C)C)C2O)C(C)(OC)CC(C)C(=O)C(C)C2N(CC3CCCN3C(=O)c3ccc(-n4cccn4)nc3)C(=O)OC12C.O=CO (stereo not drawn) [10.13] | 0.5 µg/mL | 0.5 µg/mL | >64.00 µg/mL | 16 µg/mL | <0.06 µg/mL
12 | CCC1OC(=O)C(C)C(=O)C(C)C(OC2OC(C)CC(N(C)C)C2O)C(C)(OC)CC(C)C(=O)C(C)C2N(CC3CCCN3C(=O)c3ccc4cccnc4c3)C(=O)OC12C.O=CO (stereo not drawn) [10.15] | 0.25 µg/mL | <0.06 µg/mL | >64.00 µg/mL | 2 µg/mL | <0.06 µg/mL
13 | CCC1OC(=O)C(C)C(=O)C(C)C(OC2OC(C)CC(N(C)C)C2O)C(C)(OC)CC(C)C(=O)C(C)C2N(CC3CCCN3C(=O)c3ccc4cccnc4n3)C(=O)OC12C.O=CO (stereo not drawn) [10.16] | 0.25 µg/mL | <0.06 µg/mL | >64.00 µg/mL | 0.25 µg/mL | <0.06 µg/mL
14 | CCC1OC(=O)C(C)C(=O)C(C)C(OC2OC(C)CC(N(C)C)C2O)C(C)(OC)CC(C)C(=O)C(C)C2N(CC3CCCN3C(=O)c3nccc4ccccc34)C(=O)OC12C.O=CO (stereo not drawn) [10.17] | 0.12 µg/mL | <0.06 µg/mL | >64.00 µg/mL | 0.5 µg/mL | <0.06 µg/mL
15 | CCC1OC(=O)C(C)C(=O)C(C)C(OC2OC(C)CC(N(C)C)C2O)C(C)(OC)CC(C)C(=O)C(C)C2N(CC3CCCN3C(=O)c3cncc4ccccc34)C(=O)OC12C.O=CO (stereo not drawn) [10.20] | 0.12 µg/mL | <0.06 µg/mL | 64 µg/mL | 2 µg/mL | <0.06 µg/mL
16 | CCC1OC(=O)C(C)C(=O)C(C)C(OC2OC(C)CC(N(C)C)C2O)C(C)(OC)CC(C)C(=O)C(C)C2N(CC3CCCN3C(=O)c3cnc4ccccc4n3)C(=O)OC12C.O=CO (stereo not drawn) [10.21] | 0.12 µg/mL | <0.06 µg/mL | >64.00 µg/mL | 2 µg/mL | <0.06 µg/mL
17 | CC[C@H]1OC(=O)[C@H](C)C(=O)[C@H](C)[C@@H](O[C@@H]2O[C@H](C)C[C@H](N(C)C)[C@H]2O)[C@](C)(OC)C[C@@H](C)C(=O)[C@H](C)[C@H]2N(C[C@H]3CCCN3C(=O)c3cccc4ncsc34)C(=O)O[C@]12C.O=CO [10.22] | 2 µg/mL | 0.12 µg/mL | 64 µg/mL | 2.5 µg/mL | <0.06 µg/mL
18 | CCC1OC(=O)C(C)C(=O)C(C)C(OC2OC(C)CC(N(C)C)C2O)C(C)(OC)CC(C)C(=O)C(C)C2N(CC3CCCN3C(=O)c3cccc4ncoc34)C(=O)OC12C (stereo not drawn) [10.23] | 1 µg/mL (≈ 1.19 µM) | <0.06 µg/mL | >64.00 µg/mL | 8 µg/mL (≈ 9.51 µM) | <0.06 µg/mL
19 | CCC1OC(=O)C(C)C(=O)C(C)C(OC2OC(C)CC(N(C)C)C2O)C(C)(OC)CC(C)C(=O)C(C)C2N(CC3CCCN3C(=O)c3nc4ccncc4[nH]3)C(=O)OC12C (stereo not drawn) [10.24] | 1 µg/mL (≈ 1.19 µM) | <0.06 µg/mL | >64.00 µg/mL | 2 µg/mL (≈ 2.38 µM) | <0.06 µg/mL
20 | CCC1OC(=O)C(C)C(=O)C(C)C(OC2OC(C)CC(N(C)C)C2O)C(C)(OC)CC(C)C(=O)C(C)C2N(CC3CCCN3C(=O)c3nc4cccnc4[nH]3)C(=O)OC12C (stereo not drawn) [10.25] | 0.5 µg/mL (≈ 0.595 µM) | <0.06 µg/mL | >64.00 µg/mL | 4 µg/mL (≈ 4.76 µM) | <0.06 µg/mL
21 | CCC1OC(=O)C(C)C(=O)C(C)C(OC2OC(C)CC(N(C)C)C2O)C(C)(OC)CC(C)C(=O)C(C)C2N(CC3CCCN3C(=O)c3nc4cncnc4[nH]3)C(=O)OC12C (stereo not drawn) [10.26] | 1 µg/mL (≈ 1.19 µM) | <0.06 µg/mL | >64.00 µg/mL | 2 µg/mL (≈ 2.38 µM) | <0.06 µg/mL
